These results are taken from US9493420B2, “Quinoline derivatives and uses thereof” (Portland State University, priority 2005, dated 2016).

Series [1] has as its system P. falciparum strain Dd2. The following applies: cited from earlier work. Further: key: S = sensitive; R = resistant; S/R = intermediate level of resistance.
Series [2] relates to P. falciparum strain W2. The following applies: cited from earlier work.
Series [3] relates to P. falciparum strain FCR3. The following applies: cited from earlier work.
The test system of series [4] is P. falciparum strain D6. As to conditions: cited from earlier work. Further: key: S = sensitive; R = resistant; S/R = intermediate level of resistance.
Series [5] relates to P. falciparum strain TM91C235. The following applies: cited from earlier work.
The test system of series [6] is D6 (CQ^S) P. falciparum strain. Briefly: In vitro fluorescence (Sybr Green I) growth inhibition assay, D6 strain. Type of series: cell-based. The following applies: Plasmodium falciparum, D6; Table 13; growth inhibition; read-out: IC50 (nM) D6 (CQ^S). The source says:
(§1) One exemplary method for measuring inhibitory effects of RCQ compound in vitro has been reported by Smilkstein et al. (Antimicrob. Agents Chemother., 48(5):1803-1806, 2004). This method employs fluorescent detection of the level of parasitemia in cultured red blood cells and can be automated for high-throughput screening of antimalarial RCQs. This exemplary method allows the inhibitory agent (such as a RCQ) to be in contact with the parasite for an entire developmental cycle without purine starvation, which is in contrast to the traditional ^3H-hypoxanthine method (Desjardins et al., Antimicrob. Agents Chemother., 16(6):710-718, 1979). Briefly, to perform the Smilkstein et al. method, an initial parasitemia of approximately 0.2% is attained by adding uninfected red blood cells (RBCs) to a stock culture of Plasmodium sp.-infected RBCs. […] After a period of incubation (such as about 72 hours), a sufficient amount (e.g., 100 μL) of a fluorescent DNA binding dye-detergent mixture (e.g., Sybr Green I dye-detergent mixture) to lyse cells and bind to DNA is added to the reactions. Because uninfected RBCs have no DNA, only parasite DNA (in infected RBCs) is available for binding to the fluorescent dye (e.g., Sybr Green I). Samples are then incubated in the dark for a period of time (e.g., one hour), followed by measurement of levels of fluorescence. For Sybr Green I, excitation and emission wavelength are 485 and 530 nm, respectively. Fluorescence readings, which represent the amount of parasite DNA in the sample, can be plotted against the Log [drug] and fit to a curve by nonlinear regression to obtain the IC50 value for the tested compound.
(§2) An in vitro fluorescence assay for determining IC50 of antimalarial drugs was performed as previously described by Smilkstein et al. (Antimicrob. Agents Chemother., 48(5):1803-1806, 2004). This relatively low-cost procedure can be automated for high-throughput screening of the antimalarial activities of RCQs described herein. Advantageous, this method also allows the tested agent (e.g, a RCQ) to be in contact with the parasite for an entire developmental cycle without purine starvation (which occurs with the commonly used ^3H-hypoxanthine method; see, e.g., Desjardins et al., Antimicrob. Agents Chemother., 16, (6):[…], 1979).
(§3) Briefly, an initial parasitemia of approximately 0.2% was attained by addition of uninfected red blood cells to a stock culture of cells infected with Dd2 (CQ^R) or D6 (CQ^S) P. falciparum strains. A 10 mM RCQ_02 solution (in DMSO) was prepared. RCQ_02 (at a final concentration from 10^−11 to 10^−4 M) and infected red blood cells (at a final concentration of 2% (v/v)) were mixed in 100 μL samples in individual wells of a 96-well plate. Each sample was prepared in triplicate. A triplicate set of reactions containing CQ (instead of RCQ_02) was included as a control. After a 72 hour incubation period, Sybr Green I dye-detergent mixture (100 μL) was added to each reaction. The samples were further incubated for an hour in the dark, and then placed in a 96-well fluorescence plate reader (Gemini-EM, […]) and analyzed with excitation and emission wavelength bands at 485 and 530 nm, respectively. Fluorescence readings were plotted against the Log [drug], and curve fitting performed by nonlinear regression to find the IC50 value.

For series [7], the system named is Dd2 (CQ^R) P. falciparum strain. Briefly: In vitro fluorescence (Sybr Green I) growth inhibition assay, Dd2 strain. As to conditions: Plasmodium falciparum, DD2; Table 13; growth inhibition; read-out: IC50 (nM) Dd2 (CQ^R). In kind it is cell-based.
Text: as §1, §2, §3

The subject of series [8] is mitogen-induced murine spleen lymphocytes. In kind it is cell-based. As to conditions: mouse spleen lymphocytes; for Cytotoxicity: LC50, 72 hours + 24 hours resazurin; for cytotoxicity values: Table 14. The protocol: Mouse spleen lymphocytes were isolated from C57B1/6J mice by teasing tissues on a metallic sieve screen. […] Two hundred (200) μl isolated cells were then seeded in separate wells of a 96-well flat-bottom tissue culture plate at a density of 2×10^5 cells per well. […] After 72 hours incubation in a humidified atmosphere at 37° C. and 5% CO2, a solution of resazurin PBS was added to a final concentration 10 μM, and the plates were returned to the incubator for another 24 hours. Resazurin is a substrate which changes color in response to metabolic activity (such as, living cells). […] LC50 values were determined from plots of florescence versus drug concentration using non-linear regression by Prism software.
For orientation: The colour change of resazurin is a common sign of viable cells or microbes.

The subject of series [9] is W2 (CQ^R) P. falciparum strain. In words: In vitro fluorescence (Sybr Green I) growth inhibition assay, W2 strain. In kind it is cell-based. The following applies: Plasmodium falciparum, W2; Table 13; growth inhibition; read-out: IC50 (nM) W2 (CQ^R).
Series [10] concerns the target T1, recombinant human dopamine (HEK-hDAT) transporter (Homo sapiens, UniProt Q01959).
T1 construct: expressed in transfected cells; host or cells: HEK cells expressing hDAT (HEK-hDAT)
Briefly: Inhibition of [3H]neurotransmitter uptake, hDAT. In kind it is cell-based. The procedure:
(§4) Selected RCQs were tested for inhibition of [^3H]neurotransmitter uptake by the recombinant human serotonin (hSERT), dopamine (HEK-hDAT), and norepinephrine (hNET) transporters by a modification of the method of Eshleman et al. (J. Pharmacol. Exp. Ther., 289(2):877-885, 1999). HEK-hDAT, hSERT, and -hNET expressing cells were grown on tissue culture dishes. After removing the medium and washing the plates with Ca^2+-, Mg^2+-free phosphate buffered saline (PBS), fresh medium was added and the plates were placed in a 25° C. water bath for 5 minutes. Cells were gently lifted from the plates and cell clusters separated by trituration. 50 μL aliquots of the suspended cells were added to assay tubes containing drugs and Krebs-HEPES assay buffer in a final volume of 0.5 mL.
(§5) Competition experiments were conducted in triplicate. After a 10 minute preincubation period at 25° C., [^3H]neurotransmitter (20 nM final concentration; [^3H]DA, [^3H]5-HT, or [^3H]NE) were added, and the mixtures incubated for 10 minutes. Reactions were terminated by filtration through Wallac filtermat A filters (presoaked in 0.05% polyethylenimine), using a Tomtec cell harvester. Scintillation fluid was added to each filtered spot, and radioactivity remaining on the filters determined using a Wallac 1205 Betaplate scintillation counter.
(§6) Specific uptake was defined as the difference in uptake observed in the absence and presence of 5 μM mazindol (hDAT and hNET) or 5 μM imipramine (hSERT). Inhibition of uptake was determined by non-linear regression using Prism software.

In series [11] the target is T2, recombinant human norepinephrine (hNET) transporter (Homo sapiens, UniProt P23975).
T2 construct: expressed in transfected cells; host or cells: HEK cells expressing hNET
T2 sequence (P23975 whole entry): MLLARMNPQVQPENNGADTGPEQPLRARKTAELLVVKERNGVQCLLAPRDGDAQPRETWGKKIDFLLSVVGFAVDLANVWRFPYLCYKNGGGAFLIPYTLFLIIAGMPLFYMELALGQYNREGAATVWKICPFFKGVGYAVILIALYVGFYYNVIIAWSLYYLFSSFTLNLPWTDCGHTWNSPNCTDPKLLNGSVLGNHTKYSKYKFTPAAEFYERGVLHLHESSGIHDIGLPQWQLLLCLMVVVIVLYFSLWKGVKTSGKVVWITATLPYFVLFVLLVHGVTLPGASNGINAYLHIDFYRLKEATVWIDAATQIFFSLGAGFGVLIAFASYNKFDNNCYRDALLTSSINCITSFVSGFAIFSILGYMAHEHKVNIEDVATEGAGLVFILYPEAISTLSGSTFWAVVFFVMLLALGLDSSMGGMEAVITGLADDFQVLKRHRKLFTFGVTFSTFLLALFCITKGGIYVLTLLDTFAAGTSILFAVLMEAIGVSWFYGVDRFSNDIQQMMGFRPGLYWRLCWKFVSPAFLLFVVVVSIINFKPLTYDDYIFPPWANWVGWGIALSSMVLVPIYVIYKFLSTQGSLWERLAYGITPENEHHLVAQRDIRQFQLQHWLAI
Briefly: Inhibition of [3H]neurotransmitter uptake, hNET. Type of series: cell-based. The protocol:
as §4, §5, §6

The target of series [12] is T3, recombinant human serotonin (hSERT) transporter (Homo sapiens, UniProt P31645).
T3 construct: expressed in transfected cells; host or cells: HEK cells expressing hSERT
T3 sequence (P31645 whole entry): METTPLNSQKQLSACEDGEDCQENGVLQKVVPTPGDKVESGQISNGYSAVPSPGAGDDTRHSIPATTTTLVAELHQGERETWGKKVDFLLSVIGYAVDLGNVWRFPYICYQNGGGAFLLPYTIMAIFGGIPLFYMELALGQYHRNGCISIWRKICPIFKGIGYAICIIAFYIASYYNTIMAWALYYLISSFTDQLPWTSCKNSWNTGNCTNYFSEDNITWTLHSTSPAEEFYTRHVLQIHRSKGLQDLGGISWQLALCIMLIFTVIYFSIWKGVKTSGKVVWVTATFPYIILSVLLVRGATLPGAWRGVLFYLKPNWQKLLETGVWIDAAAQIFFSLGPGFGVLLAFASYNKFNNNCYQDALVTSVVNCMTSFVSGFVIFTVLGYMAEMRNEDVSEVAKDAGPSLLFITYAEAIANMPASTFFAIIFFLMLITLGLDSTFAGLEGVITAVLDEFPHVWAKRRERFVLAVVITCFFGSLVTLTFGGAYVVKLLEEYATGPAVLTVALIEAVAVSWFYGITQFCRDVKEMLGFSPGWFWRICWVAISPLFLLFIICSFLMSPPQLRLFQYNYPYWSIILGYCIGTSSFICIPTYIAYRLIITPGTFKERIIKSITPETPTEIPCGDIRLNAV
In words: Inhibition of [3H]neurotransmitter uptake, hSERT. In kind it is cell-based. The protocol: as §4, §5, §6
Wherever Drug susceptibility, strain FCR3 is given: key: S = sensitive; R = resistant; S/R = intermediate level of resistance.
Wherever Drug susceptibility, strain W2 is given: key: S = sensitive; R = resistant; S/R = intermediate level of resistance.

T1 sequence (Q01959 whole entry): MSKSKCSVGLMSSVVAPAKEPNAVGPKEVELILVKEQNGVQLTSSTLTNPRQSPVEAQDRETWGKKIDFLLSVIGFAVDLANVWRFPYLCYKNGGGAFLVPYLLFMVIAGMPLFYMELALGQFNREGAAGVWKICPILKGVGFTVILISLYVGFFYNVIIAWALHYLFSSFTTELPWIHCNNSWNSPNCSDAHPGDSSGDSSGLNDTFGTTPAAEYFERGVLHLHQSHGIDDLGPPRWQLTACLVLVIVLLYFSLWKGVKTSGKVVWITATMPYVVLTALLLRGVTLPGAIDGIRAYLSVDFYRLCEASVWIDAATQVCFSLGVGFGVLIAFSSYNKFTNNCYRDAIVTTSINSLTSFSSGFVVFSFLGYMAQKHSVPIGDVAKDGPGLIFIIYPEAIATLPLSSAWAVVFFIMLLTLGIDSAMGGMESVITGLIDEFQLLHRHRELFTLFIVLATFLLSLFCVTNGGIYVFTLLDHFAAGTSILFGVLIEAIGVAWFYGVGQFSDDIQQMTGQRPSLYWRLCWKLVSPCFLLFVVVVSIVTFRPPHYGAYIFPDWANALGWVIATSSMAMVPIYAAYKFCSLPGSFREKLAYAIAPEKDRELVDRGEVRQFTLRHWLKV

Take `CC1(C)N=C(N)N=C(N)N1c1ccc(Cl)cc1` [Cycloguanil]: the “Drug susceptibility, strain Dd2” value in series [1] was “S”. In series [2], the “Drug susceptibility, strain W2” value is on record as “R”. The “Drug susceptibility, strain FCR3” value in [3] is “S”. For the same molecule, the “Drug susceptibility, strain D6” value in series [4] was “S”.

Take `OC(c1cc(C(F)(F)F)nc2c(C(F)(F)F)cccc12)C1CCCCN1` (stereo not shown) [Mefloquine]: the “Drug susceptibility, strain Dd2” value in series [1] is recorded as “R”. For the same molecule, the “Drug susceptibility, strain W2” value in series [2] is on record as “S”. Moreover, the “Drug susceptibility, strain FCR3” value in series [3] is on record as “S”. Moreover, in [5], the “Drug susceptibility, strain TM91C235” value is “R”. In addition, the “Drug susceptibility, strain D6” value in series [4] was “S/R”.

As a reminder, the IC50 is the concentration at which inhibition is half-maximal. For `CCN1CCN(c2ccnc3cc(Cl)ccc23)CC1` [Q_38a], the figures for the IC50 in [6] and in series [7] were 280 nM and 400 nM, respectively.

Regarding `C=C[C@H]1C[N@@]2CC[C@H]1C[C@H]2[C@H](O)c1ccnc2ccc(OC)cc12` [Quinine], in series [1], the “Drug susceptibility, strain Dd2” value was “R”. Further, in [2], the “Drug susceptibility, strain W2” value was “R”. The “Drug susceptibility, strain FCR3” value in [3] is “S”. Besides, the “Drug susceptibility, strain TM91C235” value in [5] is listed as “R”. Besides, the “Drug susceptibility, strain D6” value in series [4] is given as “S”.

`Clc1ccc2c(NCCCNCCN(c3ccccc3)c3ccccc3)ccnc2c1` [RCQ_05(desMe)]: the results for the concentration for half-maximal inhibition (IC50) in series [6] and in [7] were 36 nM and 27 nM, respectively.

As for `Clc1ccc2c(NCCCNCCCN(Cc3ccccc3)Cc3ccccc3)ccnc2c1` [RCQ_22], the “Cytotoxicity” value in series [8] came out at 700 nM. Moreover, the cytotoxicity values in series [8] stood at 700 nM. Also, the values for the IC50 in [6] and in series [7] were 45 nM and 79 nM, respectively.

Consider `Clc1ccc2c(NCCCNCCCCN(Cc3ccccc3)Cc3ccccc3)ccnc2c1` [RCQ_26], for which the IC50 in series [6] came out at 7.6 nM; in series [7] it was 10.6 nM.

Take `Clc1ccc(C(c2ccccc2)N2CCN(CCNc3ccnc4cc(Cl)ccc34)CC2)cc1` (stereo not shown) [RCQ_32]: in series [8], the “Cytotoxicity” value was 1400 nM. Moreover, the figures for the IC50 in series [6], in series [9] and in [7] were 2.6 nM, 3.4 nM and 3.4 nM, respectively.

For `CN(CCCN1c2ccccc2CCc2ccccc21)CCNc1ccnc2cc(Cl)ccc12` [RCQ_33], the “Cytotoxicity” value in series [8] is on record as 1400 nM. Also, the IC50 in series [6] was found to be 8.1 nM; in series [9], 9.3 nM; in series [7], 9.3 nM.

In the case of `Clc1ccc2c(NCCCN3CCN(C(c4ccccc4)c4ccccc4)CC3)ccnc2c1` [RCQ_34], the “Cytotoxicity” value in series [8] was 1100 nM. Further, the IC50 in [6] was 2.4 nM; in series [9] it was 2.5 nM; in series [7], 3.7 nM.

For the molecule `Clc1ccc(C(c2ccccc2)N2CCN(CCCNc3ccnc4cc(Cl)ccc34)CC2)cc1` (stereo not shown) [RCQ_35], the “Cytotoxicity” value in [8] was 800 nM. Moreover, the IC50 in [6] was 4 nM; in series [9], 4 nM; in series [7], 6 nM.

With `Clc1ccc2c(NCCN3CCCN(C(c4ccccc4)c4ccccc4)CC3)ccnc2c1` [RCQ_36], the “Cytotoxicity” value in series [8] was determined as 5300 nM. In series [8], this molecule returned a cytotoxicity values of 5300 nM. The IC50 in [6] turned out to be 11.7 nM; in series [7] it was 98 nM.

Turning to `Fc1ccc(C(c2ccc(F)cc2)N2CCN(CCCNc3ccnc4cc(Cl)ccc34)CC2)cc1` [RCQ_37F2], in [8], the “Cytotoxicity” value was 4100 nM. The figures for the 50% inhibitory concentration (IC50) in series [6] and in series [7] were 15 nM and 19 nM, respectively.

Consider `Clc1ccc2c(NCCCN3CCC(=C4c5ccccc5C=Cc5ccccc54)CC3)ccnc2c1` [RCQ_42], for which, in series [8], the “Cytotoxicity” value was 1100 nM. For the same molecule, the values for the IC50 in series [6] and in series [7] were 2.1 nM and 1.8 nM, respectively.

Turning to `Clc1ccc2c(NCCN3CCCN(C4c5ccccc5-c5ccccc54)CC3)ccnc2c1` [RCQ_72], in series [8], the “Cytotoxicity” value turned out to be 2500 nM. The half-maximal inhibitory concentration (IC50) in series [6] was 9.2 nM; in series [7] it was 9.6 nM.

With `Clc1ccc2c(NCCCN3CCCN(C(c4ccccc4)c4ccccc4)CC3)ccnc2c1` [RCQ_73], the “Cytotoxicity” value in series [8] is recorded as 700 nM. In [8], the cytotoxicity values is recorded as 700 nM. Besides, the IC50 in series [10] turned out to be 1400 nM; in series [6] it was 4.8 nM; in [11], 660 nM; in [12], 1160 nM; in series [7], 4.1 nM.

`Clc1ccc(C(c2ccccc2)N2CCCN(CCCNc3ccnc4cc(Cl)ccc34)CC2)cc1` (stereo not shown) [RCQ_74]: in series [8], the “Cytotoxicity” value is given as 900 nM. The IC50 was found to be 15 nM in [6] and 9.8 nM in [7].

Take `Clc1ccc2c(NCCCN3CCCN(C4c5ccccc5-c5ccccc54)CC3)ccnc2c1` [RCQ_76]: in [8], the “Cytotoxicity” value is listed as 2500 nM. Further, the IC50 in series [10] turned out to be 1080 nM; in series [6] it was 21.1 nM; in series [11], 550 nM; in series [12], 965 nM; in series [7] it was 15.3 nM.

As to `Clc1ccc2c(N3CCN(CCN(Cc4ccccc4)Cc4ccccc4)CC3)ccnc2c1` [RCQ_351], the values for the IC50 in [6] and in series [7] were 141 nM and 164 nM, respectively.

Take `COc1ncnc(NS(=O)(=O)c2ccc(N)cc2)c1OC` [Sulfadoxine]: in series [1], the “Drug susceptibility, strain Dd2” value is reported as “S”. The “Drug susceptibility, strain W2” value in series [2] is “R”. Also, the “Drug susceptibility, strain FCR3” value in [3] is on record as “S”. The “Drug susceptibility, strain TM91C235” value in series [5] is listed as “R”. Besides, the “Drug susceptibility, strain D6” value in series [4] was “S”.
